Assay results as given in patent US20260124168A1, “OIL COMPOSITION COMPRISING CAPROIC ACID RESIDUES, UNSATURATED FATTY ACID RESIDUES AND SATURATED FATTY ACID RESIDUES” (AAK AB (PUBL), priority 2022, published 2026).

Columns and labels:
IL-10 = IL-10 mRNA expression in LPS-treated hMADS derived adipocytes (real-time PCR); type: cell-based, human; details: butyric acid 10^−4M, hexanoic acid 10^−5M, 24 h then 5 ug/mL LPS 24 h, relative to LPS without short chain fatty acids, FIG. 10
Protocol: In the experiment, adipose tissue-derived stem cells were pre-treated with butyric acid, caproic acid, and a combination thereof after which lipopolysaccharide (LPS) was added to induce (low-grade) inflammation. […] Pooled human multipotent adipose tissue-derived stem cells (hMADS), were differentiated into the adipogenic lineage, creating a human white adipocyte model. hMADS cells were derived from male human donors with a large range in BMI (20-40 kg/m2) and glucometabolic status, and age between 35 and 70 years of age. Cells were seeded at a density of 2,000 cells/cm2 and kept in proliferation medium containing Dulbecco's modified Eagle's medium (DMEM), Ham's F-12 Nutrient Mixture (Gibco, Bleiswijk, Netherlands), 10% fetal bovine serum (Bodinco BV, Alkmaar, NL, Netherlands), 50 U/ml penicillin (Gibco), and 50 μg/ml of streptomycin (Gibco)]. At 70-80% confluence, 250 μmol/L IBMX (Sigma, St. Louis, MI, USA) and 5 μmol/L rosiglitazone (Enzo Life Sciences, Raamsdonksveer, Netherlands) were added to induce adipogenic differentiation. Experiments were carried out between days 12 and 14 of the differentiation. To study the effect of butyric acid (10^-4M) and hexanoic acid (10^-5M) on the expression of the anti-inflammatory cytokine IL-10, hMADS derived adipocytes were incubated with butyric acid, hexanoic acid or the combination thereof. […]

IL-6 = IL-6 production by LPS-treated hMADS adipocytes (ECL immunoassay); type: cell-based, human; details: fatty acid 10-4 to 10-9 mol 24 h then 5 ug/mL LPS 24 h, versus LPS only, all tested concentrations, FIG. 8/9
Protocol: An experiment was carried out to ascertain the extent to which butyric acid and caproic acid effect the production of the proinflammatory cytokine IL-6 in an inflammatory condition.
Pooled human multipotent adipose tissue-derived stem cells (hMADS), were differentiated into the adipogenic lineage, creating a human white adipocyte model. hMADS cells were derived from male human donors with a large range in BMI (20-40 kg/m2) and glucometabolic status, and age between 35 and 70 years of age. Cells were seeded at a density of 2,000 cells/cm2 and kept in a proliferation medium containing Dulbecco's modified Eagle's medium (DMEM), Ham's F-12 Nutrient Mixture (Gibco, Bleiswijk, Netherlands), 10% fetal bovine serum (Bodinco BV, Alkmaar, NL, Netherlands), 50 U/ml penicillin (Gibco), and 50 μg/ml of streptomycin (Gibco)].
At 70-80% confluence, 250 μmol/L IBMX (Sigma, St. Louis, MI, USA) and 5 μmol/L rosiglitazone (Enzo Life Sciences, Raamsdonksveer, Netherlands) were added to induce adipogenic differentiation. Experiments were carried out between days 12 and 14 of the differentiation. […]
IL-6 cytokine levels in the culture supernatant were evaluated using a electrochemiluminescence (ECL) immunoassay (MSD; Rockville, Maryland) according to the manufacturers protocol. […]

| Structure (SMILES) | expression of IL-10 (mRNA) (IL-10) | concentration of IL-6 (IL-6) |
| --- | --- | --- |
| CCCC(=O)O [butyric acid] | small increase | lower |
| CCCCCC(=O)O [hexanoic acid] | small increase | lower |
